# According to patent US10273235B2, “Compositions and methods for inhibiting β-lactamase” (LegoChem Biosciences, Inc., priority 2015, dated 2019):
# Structures can show the parent of a compound that is named as a salt.
# Key:
# [1] = molecular target: T1, CMY-10 β-lactamase (class C) (Klebsiella aerogenes, UniProt Q99QC1); assay: Inhibitory activity against β-lactamases (nitrocefin), CMY-10; type: biochemical
# T1 construct: MICs of bacterial strains used for extraction of enzymes; endogenous in cells
# Protocol: (§1) More diluted stocks were prepared as necessary. Enzyme activity was determined by monitoring the change of absorbance at 492 nm using the characteristic molecular extinction coefficient (Δε492=17,400 M^−1 cm^−1) of nitrocefin by a Shimazu UV-1650PC spectrophotometer. The nitrocefin was purchased from OXOID. Kinetic measurements were run at 30° C. in 10 mM MES[2-(N-morpholino)ethanesulfonic acid]buffer (pH 6.8) or 10 mM MES[2-(N-morpholino)ethanesulfonic acid] buffer (pH 6.8), […] BSA and 50 mM sodium bicarbonate. Reactions were performed in 2.5 mL cuvettes with 100 μM nitrocefin and initiated by adding 1.5 nM to 2.5 nM enzyme. The first 180 s of each reaction was used to measure initial rates. Data were evaluated using Microsoft Excel. Concentration dependent inhibition of enzyme was measured using different concentrations of inhibitors resulting from two-fold dilution series. Reaction progress at every concentration of inhibitor was measured in triplicates. IC50 values were calculated using 4-parameter log fits using XL Fit curve fitting software (www.idbs.com) for Excel using the following equation:
# (§2) [formula] where y is the remaining enzyme activity (in %) and x is the corresponding concentration. he fitted IC50 parameter is the relative IC50, and is defined as the concentration giving a response half way between the fitted top (B) and bottom (A) of the curve.
# E. aerogenes K9911729 = assay: MIC of strain used for extraction of enzymes, E. aerogenes K9911729 (CMY-10, TEM-1, SHV-12, AmpC (DQ478697)); type: cell-based
# E. coli K0519020 = assay: MIC of strain used for extraction of enzymes, E. coli K0519020 (CTX-M-15, TEM-1, OXA-1, AmpC (NC_000913)); type: cell-based
# [2] = molecular target: T2, NDM-1 β-lactamase (class B) (Klebsiella pneumoniae, UniProt C7C422); assay: Inhibitory activity against β-lactamases (nitrocefin), NDM-1; type: biochemical; settings: 100 μM nitrocefin, 30° C., pH 6.8
# T2 construct: MICs of bacterial strains used for extraction of enzymes; endogenous in cells; host or cells: bacterial strain carrying NDM-1 (E. coli according to the earlier reading)
# Protocol: as §1, §2
# [3] = molecular target: T3, OXA-48 β-lactamase (class D) (Klebsiella pneumoniae, UniProt Q6XEC0); assay: Inhibitory activity against β-lactamases (nitrocefin), OXA-48; type: biochemical; settings: 100 μM nitrocefin, 30° C., pH 6.8
# T3 construct: MICs of bacterial strains used for extraction of enzymes; endogenous in cells; host or cells: bacterial strain carrying OXA-48 (E. coli according to the earlier reading)
# Protocol: as §1, §2
# E. coli TOPDXA048 = assay: MIC of strain used for extraction of enzymes, E. coli TOPDXA048 (OXA-48, TEM-116, AmpC (NC_000913)); type: cell-based
# E. coli ECO200 = assay: MIC of strain used for extraction of enzymes, E. coli ECO200 (NDM-1, TEM-1, CTX-M-15, EC (AmpC), OXA-2 type); type: cell-based
# Mouse pharmacokinetics = type: in vivo, ICR mouse; settings: IV, 50 mg/kg, plasma
# Protocol: The pharmacokinetics values were evaluated in a mouse model. The test compound (50 mg/kg) was injected into the tail vein of 8 week old ICR mouse, weighing approximately 26-30 g. […] Lab conditions were temperature of 22±3° C. and humidity of 50±20%.
# [4] = molecular target: KPC-3 β-lactamase (class A) (Klebsiella pneumoniae, UniProt Q9F663, H272Y); assay: Inhibitory activity against β-lactamases (nitrocefin), KPC-3; type: biochemical, K. pneumoniae
# Protocol: as §1, §2
# K. pneumoniae CL5761 = assay: MIC of strain used for extraction of enzymes, K. pneumoniae CL5761 (KPC-3, TEM-216, SHV-5); type: cell-based; settings: BLI: 4 ug/mL
# Protocol: MIC90 (μg/mL) is the lowest concentration of an antibiotic that will inhibit the visible growth of 90% of microorganisms after incubation as compared with a control group to which the antibiotic is not treated.
# MIC values were measured by the broth microdilution method developed by the Clinical and Laboratory Standards Institute (CLSI) (see CLSI M07-A9, Methods for Dilution Antimicrobial Susceptibility Test for Bacteria that Grow Aerobically; Approved Standard-Ninth Edition (2012): CLSI, Villanova, Pa.). The in vitro antibacterial activity was measured with respect to the following 9 clinical isolates: P. aeruginosa (3 strains); K. pneumoniae (6 strains). The in vitro antibacterial activity of selected compounds was measured with respect to the following 15 clinical isolates: K. pneumoniae (15 strains).
# T1 sequence (Q99QC1 24-382): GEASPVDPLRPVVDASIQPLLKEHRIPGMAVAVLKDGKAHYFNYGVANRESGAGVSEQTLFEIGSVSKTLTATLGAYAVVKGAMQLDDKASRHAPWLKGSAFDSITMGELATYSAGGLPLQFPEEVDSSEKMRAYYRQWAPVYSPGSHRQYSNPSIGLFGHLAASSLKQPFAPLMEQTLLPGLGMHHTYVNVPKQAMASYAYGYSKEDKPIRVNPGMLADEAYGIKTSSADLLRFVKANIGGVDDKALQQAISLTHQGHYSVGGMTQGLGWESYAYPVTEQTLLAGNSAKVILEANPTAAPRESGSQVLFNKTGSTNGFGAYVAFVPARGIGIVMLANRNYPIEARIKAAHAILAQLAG
# T2 sequence (C7C422 29-270, looked up): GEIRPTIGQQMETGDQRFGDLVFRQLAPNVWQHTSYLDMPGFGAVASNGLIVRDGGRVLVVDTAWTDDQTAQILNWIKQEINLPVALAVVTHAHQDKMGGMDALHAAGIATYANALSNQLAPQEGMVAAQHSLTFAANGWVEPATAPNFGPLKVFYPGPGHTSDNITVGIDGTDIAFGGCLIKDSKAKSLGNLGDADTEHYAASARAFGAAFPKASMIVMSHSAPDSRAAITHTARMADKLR
# Chain of KPC-3 β-lactamase (class A) (Q9F663 25-293 H272Y): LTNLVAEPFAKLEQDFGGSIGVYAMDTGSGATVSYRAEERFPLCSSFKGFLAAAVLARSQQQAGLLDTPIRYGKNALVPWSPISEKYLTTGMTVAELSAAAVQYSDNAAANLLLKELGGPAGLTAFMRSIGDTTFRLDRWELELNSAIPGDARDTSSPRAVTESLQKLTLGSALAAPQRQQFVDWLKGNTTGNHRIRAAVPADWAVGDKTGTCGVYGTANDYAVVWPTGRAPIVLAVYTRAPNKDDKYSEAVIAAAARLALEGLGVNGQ
# T3 sequence (Q6XEC0 23-265, looked up): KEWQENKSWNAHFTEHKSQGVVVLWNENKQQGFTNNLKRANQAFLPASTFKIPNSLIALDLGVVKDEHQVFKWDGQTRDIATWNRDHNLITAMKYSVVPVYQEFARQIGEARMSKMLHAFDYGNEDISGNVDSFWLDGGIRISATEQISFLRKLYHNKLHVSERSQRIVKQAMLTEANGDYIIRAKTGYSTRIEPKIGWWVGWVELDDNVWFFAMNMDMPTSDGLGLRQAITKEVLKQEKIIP
structure (smiles),measurement,setting,value
"O=C1N2C[C@@H](CC[C@H]2C2=NO[C@]3(CCNC3)C2)N1OS(=O)(=O)O [Example 17, [(2S,5R)-2-[(5R)-1-oxa-2,7-diazaspiro[4.4]non-2-en-3-yl]-7-oxo-1,6-diazabicyclo[3.2.1]octan-6-yl] hydrogen sulfate]",IC50,[1],0.185 µM
same,MIC of Meropenem with BLI,E. aerogenes K9911729; BLI: 4 ug/mL,<0.0312 µg/mL
same,MIC,"E. aerogenes K9911729; Klebsiella aerogenes, K9911729, read-out: MIC of LCB10-0200 with BLI",< 0.0312 µg/mL
same,MIC of Meropenem with BLI,E. coli K0519020; BLI: 4 ug/mL,0.0625 µg/mL
same,MIC,"E. coli K0519020; Escherichia coli, K0519020, read-out: MIC of LCB10-0200 with BLI",< 0.0312 µg/mL
same,IC50,[2],1190 µM
same,IC50,[3],29.5 µM
same,MIC of Meropenem with BLI,E. coli TOPDXA048; BLI: 4 ug/mL,<0.0312 µg/mL
same,MIC,"E. coli TOPDXA048; Escherichia coli, TOPDXA048, read-out: MIC of LCB10-0200 with BLI",< 0.0312 µg/mL
same,MIC of Meropenem with BLI,E. coli ECO200; BLI: 4 ug/mL,<0.0312 µg/mL
same,MIC,"E. coli ECO200; Escherichia coli, ECO200, read-out: MIC of LCB10-0200 with BLI",< 0.0312 µg/mL
same,AUC(0-inf),Mouse pharmacokinetics; ICR,31000 ± 500 ng·h/mL
same,Cmax,Mouse pharmacokinetics; ICR,64.2 ± 3.88 µg/mL
same,Tmax,Mouse pharmacokinetics; ICR,4.8 min
same,clearance,Mouse pharmacokinetics; ICR,27 mL/min/kg
same,half-life,Mouse pharmacokinetics; ICR,75 ± 9 min
same,Vd,"Mouse pharmacokinetics; ICR, read-out: Vss",1.81 ± 0.14 L/kg
same,AUCnorm,Mouse pharmacokinetics,0.62 ± 0.01 kg·h/L
same,"Cmax, norm",Mouse pharmacokinetics,1.28 ± 0.08 kg/L
same,IC50,[4],2.74 µM
same,MIC of Meropenem with BLI,K. pneumoniae CL5761,0.5 µg/mL
same,MIC,"K. pneumoniae CL5761; Klebsiella pneumoniae, CL5761, read-out: MIC of LCB10-0200 with BLI",0.125 µg/mL
